From PubChem BioAssay (NCI)
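Tested at 5 concentrations; 48 h exposure; 96-well plates; endpoints linearly interpolated, else capped at highest concentration. GI50 = concentration required for 50% inhibition of growth. Definition used: TGI = concentration required for complete inhibition of growth.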

Tests used:
Test in all cases: inhibition of tumour cell growth, NCI panel, 48 h
[1] = test system: TK-10 renal
[2] = test system: HOP-62 NSCLC
[3] = test system: UO-31 renal
[4] = test system: CAKI-1 renal
[5] = test system: SNB-19 CNS
[6] = test system: M14 melanoma
[7] = test system: SK-OV-3 ovarian
[8] = test system: SR leukemia
[9] = test system: PC-3 prostate
[10] = test system: SW-620 colon
[11] = test system: HT29 colon
[12] = test system: HCC-2998 colon
[13] = test system: UACC-62 melanoma
[14] = test system: EKVX NSCLC
[15] = test system: T-47D breast
[16] = test system: MCF7 breast
[17] = test system: SF-268 CNS
[18] = test system: HCT-116 colon
[19] = test system: KM12 colon
[20] = test system: OVCAR-4 ovarian
[21] = test system: HS 578T breast
[22] = test system: SF-539 CNS
[23] = test system: SN12C renal
[24] = test system: SK-MEL-2 melanoma
[25] = test system: NCI-H460 lung
[26] = test system: NCI-H522 lung
[27] = test system: NCI-H23 lung
[28] = test system: A498 renal
[29] = test system: SK-MEL-28 melanoma
[30] = test system: HOP-92 NSCLC
[31] = test system: SK-MEL-5 melanoma
[32] = test system: U251 CNS
[33] = test system: NCI-H226 lung
[34] = test system: HCT-15 colon
[35] = test system: RPMI-8226 leukemia
[36] = test system: NCI/ADR-RES ovarian
[37] = test system: IGROV1 ovarian
[38] = test system: CCRF-CEM leukemia
[39] = test system: HL-60(TB) leukemia
[40] = test system: LOX IMVI melanoma
[41] = test system: OVCAR-3 ovarian
[42] = test system: MDA-MB-231 breast
[43] = test system: SNB-75 CNS
[44] = test system: MALME-3M melanoma
[45] = test system: DU-145 prostate
[46] = test system: OVCAR-5 ovarian
[47] = test system: OVCAR-8 ovarian
[48] = test system: RXF 393 renal
[49] = test system: MDA-MB-468 breast
[50] = test system: SF-295 CNS
[51] = test system: COLO 205 colon
[52] = test system: 786-0 renal
[53] = test system: MOLT-4 leukemia
[54] = test system: ACHN renal
[55] = test system: MDA-MB-435
[56] = test system: A549 NSCLC
[57] = test system: BT-549 breast
[58] = test system: K-562 leukemia
[59] = test system: UACC-257 melanoma

With `CCc1ccc(SC2c3cc(OC)ccc3Oc3nc(N)c(C#N)c(N)c32)cc1` (configuration not stated) the GI50 [1] was 9.67 µM, the TGI [1] was 32.2 µM and the GI50 [2] was 3.77 µM. The TGI [2] was > 100 µM, the GI50 [3] was 0.575 µM and the TGI [3] was 4.17 µM. The GI50 [4] was 1.89 µM, the TGI [4] was 15 µM and the GI50 [5] was 3.17 µM. For the same molecule, the TGI [5] was 16.6 µM, the GI50 [6] was 2.67 µM and the TGI [6] was 12.4 µM. The GI50 [7] was 6.62 µM, the TGI [7] was 82.4 µM and the GI50 [8] was 2.61 µM. It also gave a TGI [8] of 22.8 µM, a GI50 [9] of 1.52 µM and a TGI [9] of 18.6 µM. It also gave a GI50 [10] of 3.15 µM, a TGI [10] of 13.1 µM and a GI50 [11] of 6.15 µM. For the same molecule, the TGI [11] was > 100 µM, the GI50 [12] was 4.9 µM and the TGI [12] was 17.1 µM. For the same molecule, the GI50 [13] was 2.73 µM, the TGI [13] was 11.5 µM and the GI50 [14] was 3.74 µM. It also gave a TGI [14] of 17.3 µM, a GI50 [15] of 3.36 µM and a TGI [15] of 32.9 µM. The GI50 [16] was 3.04 µM, the TGI [16] was 13.6 µM and the GI50 [17] was 1.99 µM. It also gave a TGI [17] of 20.5 µM, a GI50 [18] of 3.05 µM and a TGI [18] of 13.9 µM. The GI50 [19] was 3.43 µM, the TGI [19] was 16.1 µM and the GI50 [20] was 4.23 µM. The TGI [20] was 41.6 µM, the GI50 [21] was 2.35 µM and the TGI [21] was 9.18 µM. It also gave a GI50 [22] of 1.59 µM, a TGI [22] of 3.27 µM and a GI50 [23] of 1.76 µM. For the same molecule, the TGI [23] was 15.8 µM, the GI50 [24] was 3.42 µM and the TGI [24] was 13 µM. The GI50 [25] was 2.84 µM, the TGI [25] was 15.3 µM and the GI50 [26] was 1.69 µM. The TGI [26] was 3.49 µM, the GI50 [27] was 2.9 µM and the TGI [27] was 14 µM. It also gave a GI50 [28] of 3.32 µM, a TGI [28] of 10.8 µM and a GI50 [29] of 2.99 µM. The TGI [29] was 12.5 µM, the GI50 [30] was 3.66 µM and the TGI [30] was 35.4 µM. It also gave a GI50 [31] of 3.23 µM, a TGI [31] of 13.7 µM and a GI50 [32] of 1.82 µM. For the same molecule, the TGI [32] was 15.3 µM, the GI50 [33] was 2.26 µM and the TGI [33] was 23.3 µM. The GI50 [34] was 2.96 µM, the TGI [34] was 19.3 µM and the GI50 [35] was 3.02 µM. The TGI [35] was 14.6 µM, the GI50 [36] was 3.24 µM and the TGI [36] was 26.4 µM. For the same molecule, the GI50 [37] was 0.349 µM, the TGI [37] was 1.51 µM and the GI50 [38] was 0.225 µM. For the same molecule, the TGI [38] was 4.34 µM, the GI50 [39] was 2.09 µM and the TGI [39] was 6.11 µM. The GI50 [40] was 0.23 µM, the TGI [40] was 0.658 µM and the GI50 [41] was 2.9 µM. It also gave a TGI [41] of 12.6 µM, a GI50 [42] of 3.34 µM and a TGI [42] of 17 µM. It also gave a GI50 [43] of 0.566 µM, a TGI [43] of 4.02 µM and a GI50 [44] of 10.6 µM. The TGI [44] was 22.7 µM, the GI50 [45] was 11.7 µM and the TGI [45] was 24.6 µM. The GI50 [46] was 3.41 µM, the TGI [46] was 14.4 µM and the GI50 [47] was 5.85 µM. It also gave a TGI [47] of 37.4 µM, a GI50 [48] of 1.76 µM and a TGI [48] of 5.09 µM. For the same molecule, the GI50 [49] was 2.1 µM, the TGI [49] was 6.56 µM and the GI50 [50] was 3.28 µM. It also gave a TGI [50] of 15.7 µM, a GI50 [51] of 2.35 µM and a TGI [51] of 6.19 µM. The GI50 [52] was 3.11 µM, the TGI [52] was 24.9 µM and the GI50 [53] was 1.28 µM. The TGI [53] was 9.69 µM, the GI50 [54] was 5.6 µM and the TGI [54] was 25.3 µM. For the same molecule, the GI50 [55] was 2.05 µM, the TGI [55] was 11.6 µM and the GI50 [56] was 3.99 µM. The TGI [56] was 49.4 µM, the GI50 [57] was 0.742 µM and the TGI [57] was 3.25 µM. For the same molecule, the GI50 [58] was 3.51 µM, the TGI [58] was 24.4 µM and the GI50 [59] was 9.06 µM. It also gave a TGI [59] of 29.6 µM.

`O=C(/C=C/c1ccc(F)cc1)c1nc2ccccc2n1Cc1ccc(Br)cc1` was tested, and the GI50 [1] was 2.73 µM, the TGI [1] was 8.11 µM and the GI50 [2] was 2.1 µM. It also gave a TGI [2] of 4.87 µM, a GI50 [3] of 1.42 µM and a TGI [3] of 2.93 µM. It also gave a GI50 [4] of 1.97 µM, a TGI [4] of 5.74 µM and a GI50 [6] of 2.33 µM. The TGI [6] was 6.43 µM, the GI50 [7] was 10.5 µM and the TGI [7] was > 100 µM. The GI50 [8] was 2.79 µM, the TGI [8] was > 100 µM and the GI50 [9] was 3.37 µM. For the same molecule, the TGI [9] was 13.7 µM, the GI50 [10] was 2.14 µM and the TGI [10] was 4.44 µM. It also gave a GI50 [11] of 2.37 µM, a TGI [11] of 4.93 µM and a GI50 [12] of 1.81 µM. The TGI [12] was 3.36 µM, the GI50 [13] was 1.74 µM and the TGI [13] was 4.3 µM. For the same molecule, the GI50 [14] was 2.62 µM, the TGI [14] was 7.78 µM and the GI50 [15] was 2.68 µM. It also gave a TGI [15] of 11.3 µM, a GI50 [16] of 1.72 µM and a TGI [16] of 9.27 µM. The GI50 [17] was 3.58 µM, the TGI [17] was 67.8 µM and the GI50 [18] was 1.96 µM. The TGI [18] was 4.26 µM, the GI50 [19] was 2.13 µM and the TGI [19] was 5.22 µM. It also gave a GI50 [20] of 4.3 µM, a TGI [20] of 51.4 µM and a GI50 [21] of 3.71 µM. For the same molecule, the TGI [21] was 43.3 µM, the GI50 [22] was 1.91 µM and the TGI [22] was 3.8 µM. It also gave a GI50 [23] of 3.02 µM, a TGI [23] of 11.1 µM and a GI50 [24] of 2.12 µM. The TGI [24] was 4.74 µM, the GI50 [25] was 1.89 µM and the TGI [25] was 4 µM. It also gave a GI50 [26] of 2.17 µM, a TGI [26] of 4.68 µM and a GI50 [27] of 1.95 µM. It also gave a TGI [27] of 4.37 µM, a GI50 [28] of 17.2 µM and a TGI [28] of 32.1 µM. For the same molecule, the GI50 [29] was 1.85 µM, the TGI [29] was 3.77 µM and the GI50 [30] was 2.03 µM. It also gave a TGI [30] of 12.1 µM, a GI50 [31] of 2.36 µM and a TGI [31] of 6.69 µM. For the same molecule, the GI50 [32] was 1.54 µM, the TGI [32] was 2.99 µM and the GI50 [33] was 2.96 µM. For the same molecule, the TGI [33] was 13.1 µM, the GI50 [34] was 1.67 µM and the TGI [34] was 3.46 µM. For the same molecule, the GI50 [35] was 2.29 µM, the TGI [35] was 6.87 µM and the GI50 [37] was 2.31 µM. For the same molecule, the TGI [37] was 5.81 µM, the GI50 [38] was 1.62 µM and the TGI [38] was 8.35 µM. The GI50 [39] was 2.02 µM, the TGI [39] was 6.3 µM and the GI50 [40] was 1.59 µM. It also gave a TGI [40] of 3.06 µM, a GI50 [41] of 1.76 µM and a TGI [41] of 3.42 µM. The GI50 [42] was 2.1 µM, the TGI [42] was 4.66 µM and the GI50 [43] was 1.2 µM. It also gave a TGI [43] of 12.2 µM, a GI50 [44] of 1.83 µM and a TGI [44] of 4.17 µM. It also gave a GI50 [45] of 3.47 µM, a TGI [45] of 26 µM and a GI50 [46] of 1.94 µM. The TGI [46] was 4.16 µM, the GI50 [47] was 2.26 µM and the TGI [47] was 5.51 µM. The GI50 [48] was 1.48 µM, the TGI [48] was 2.89 µM and the GI50 [49] was 1.9 µM. It also gave a TGI [49] of 4.12 µM, a GI50 [50] of 2.14 µM and a TGI [50] of 5.29 µM. It also gave a GI50 [51] of 2.35 µM, a TGI [51] of 5.55 µM and a GI50 [52] of 1.93 µM. The TGI [52] was 3.89 µM, the GI50 [53] was 2.41 µM and the TGI [53] was 8.96 µM. For the same molecule, the GI50 [54] was 2.8 µM, the TGI [54] was 8.7 µM and the GI50 [55] was 1.85 µM. The TGI [55] was 4.19 µM, the GI50 [56] was 3.93 µM and the TGI [56] was 35.3 µM. The GI50 [57] was 2.24 µM, the TGI [57] was 5.81 µM and the GI50 [58] was 2.84 µM. The TGI [58] was > 100 µM, the GI50 [59] was 3.2 µM and the TGI [59] was 14.7 µM.
